Reference: patent publication US20200291018A1, “TAM KINASE INHIBITORS” (SYROS PHARMACEUTICALS, INC., priority 2017, published 2020)

Assays:
Type in all cases: biochemical
MERTK = target: T1, MERTK (Homo sapiens, UniProt Q12866); assay: TR-FRET kinase activity assay, MERTK; conditions: for IC50: TR-FRET activity assay, ATP at Km, 60 minutes, read-out: Mer IC50; for Mer/Flt3 ratio (FLT3 IC50/Mer IC50): ratio calculated as FLT3 IC50/Mer IC50
T1 sequence (Q12866 21-999): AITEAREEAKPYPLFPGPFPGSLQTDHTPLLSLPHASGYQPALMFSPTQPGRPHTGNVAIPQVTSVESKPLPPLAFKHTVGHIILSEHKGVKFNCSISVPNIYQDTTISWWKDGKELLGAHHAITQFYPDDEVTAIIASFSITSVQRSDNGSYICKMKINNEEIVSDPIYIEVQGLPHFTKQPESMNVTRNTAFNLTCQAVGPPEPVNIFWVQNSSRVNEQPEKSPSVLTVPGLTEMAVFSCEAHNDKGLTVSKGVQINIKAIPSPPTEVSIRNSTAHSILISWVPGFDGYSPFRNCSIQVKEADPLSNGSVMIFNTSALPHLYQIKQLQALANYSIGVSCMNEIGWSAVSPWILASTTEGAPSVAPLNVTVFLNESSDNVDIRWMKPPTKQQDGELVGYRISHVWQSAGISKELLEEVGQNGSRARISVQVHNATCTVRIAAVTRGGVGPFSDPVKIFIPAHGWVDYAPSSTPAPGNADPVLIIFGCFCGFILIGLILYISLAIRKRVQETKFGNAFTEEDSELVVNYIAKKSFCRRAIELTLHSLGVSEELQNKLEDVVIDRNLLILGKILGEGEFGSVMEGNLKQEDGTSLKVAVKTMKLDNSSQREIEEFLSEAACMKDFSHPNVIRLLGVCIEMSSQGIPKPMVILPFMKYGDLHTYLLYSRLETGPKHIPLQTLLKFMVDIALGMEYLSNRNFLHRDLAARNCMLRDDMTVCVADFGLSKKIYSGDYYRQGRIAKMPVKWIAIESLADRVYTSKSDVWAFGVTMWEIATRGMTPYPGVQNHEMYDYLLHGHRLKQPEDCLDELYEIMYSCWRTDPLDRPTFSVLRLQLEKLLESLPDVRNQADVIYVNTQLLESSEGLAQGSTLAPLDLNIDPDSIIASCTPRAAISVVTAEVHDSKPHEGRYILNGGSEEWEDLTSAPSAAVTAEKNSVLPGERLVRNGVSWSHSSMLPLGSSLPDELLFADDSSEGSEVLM
Method: (§1) IC50 values for compound inhibition of AXL, FLT3, MERTK and TYRO3 activity were determined using a TR-FRET activity assay. A peptide substrate with a fluorescent label is phosphorylated on a tyrosine by each enzyme, where the now phosphorylated product is bound by a Europium-labeled antibody specific to that phosphorylation site. The proximity between the antibody and the substrate gives a signal known as TR-FRET. As the enzyme is inhibited by compound, less phosphorylated peptide product is made, causing a decrease in overall signal.
(§2) Activity assays were performed in a 384-well, small volume, black microplates in an active enzyme volume of 10 uL and final developed volume of 20 uL. Final assay conditions are 50 mM HEPES pH 7.5, 10 mM MgCl2, 1 mM EGTA, 0.01% Brij 35 and 1 mM DTT, all at RT. Enzyme, substrate-labeled peptide and compound are mixed, and then the reaction is initiated with the addition of ATP at Km concentration for each enzyme. The reaction is allowed to run 60 minutes and then quenched with a 12.5 mM EDTA (ethylenediamine tetraacetic acid) solution. The plate is then developed with the addition of Europium-labeled antibody for a final volume of 20 uL and is then incubated for 30 minutes in darkness. Plates are read in a PHERASTAR® plate reader. Data are analyzed in GraphPad PRISM.

FLT3 = target: T2, FLT3 (Homo sapiens, UniProt P36888); assay: TR-FRET kinase activity assay, FLT3; conditions: ATP at Km, 60 minutes
T2 sequence (P36888 27-993): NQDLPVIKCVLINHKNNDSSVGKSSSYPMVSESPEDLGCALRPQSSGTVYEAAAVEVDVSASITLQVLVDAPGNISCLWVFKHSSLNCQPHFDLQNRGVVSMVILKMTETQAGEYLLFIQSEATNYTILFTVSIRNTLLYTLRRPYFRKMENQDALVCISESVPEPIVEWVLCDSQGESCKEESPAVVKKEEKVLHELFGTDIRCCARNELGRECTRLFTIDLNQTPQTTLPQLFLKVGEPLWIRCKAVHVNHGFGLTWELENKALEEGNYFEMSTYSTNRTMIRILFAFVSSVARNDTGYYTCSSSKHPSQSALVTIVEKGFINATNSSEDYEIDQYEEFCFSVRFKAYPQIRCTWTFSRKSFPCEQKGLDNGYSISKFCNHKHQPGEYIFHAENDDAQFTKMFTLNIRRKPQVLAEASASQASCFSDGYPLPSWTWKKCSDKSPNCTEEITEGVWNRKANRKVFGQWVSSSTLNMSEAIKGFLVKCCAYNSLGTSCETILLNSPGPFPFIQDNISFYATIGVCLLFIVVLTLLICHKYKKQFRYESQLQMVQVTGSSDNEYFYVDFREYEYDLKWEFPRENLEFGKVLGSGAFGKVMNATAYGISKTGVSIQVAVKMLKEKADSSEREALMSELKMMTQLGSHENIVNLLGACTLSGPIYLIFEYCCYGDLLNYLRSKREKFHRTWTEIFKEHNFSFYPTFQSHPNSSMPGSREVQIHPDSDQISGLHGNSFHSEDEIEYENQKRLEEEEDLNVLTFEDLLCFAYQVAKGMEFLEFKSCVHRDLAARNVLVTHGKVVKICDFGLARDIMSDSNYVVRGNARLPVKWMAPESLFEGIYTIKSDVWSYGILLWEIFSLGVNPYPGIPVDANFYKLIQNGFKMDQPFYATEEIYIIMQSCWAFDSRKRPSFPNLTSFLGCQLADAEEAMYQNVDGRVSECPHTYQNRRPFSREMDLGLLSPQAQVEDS
Method: as §1, §2

AXL = target: T3, AXL (Homo sapiens, UniProt P30530); assay: TR-FRET kinase activity assay, AXL; conditions: ATP at Km, 60 minutes
T3 sequence (P30530 26-894): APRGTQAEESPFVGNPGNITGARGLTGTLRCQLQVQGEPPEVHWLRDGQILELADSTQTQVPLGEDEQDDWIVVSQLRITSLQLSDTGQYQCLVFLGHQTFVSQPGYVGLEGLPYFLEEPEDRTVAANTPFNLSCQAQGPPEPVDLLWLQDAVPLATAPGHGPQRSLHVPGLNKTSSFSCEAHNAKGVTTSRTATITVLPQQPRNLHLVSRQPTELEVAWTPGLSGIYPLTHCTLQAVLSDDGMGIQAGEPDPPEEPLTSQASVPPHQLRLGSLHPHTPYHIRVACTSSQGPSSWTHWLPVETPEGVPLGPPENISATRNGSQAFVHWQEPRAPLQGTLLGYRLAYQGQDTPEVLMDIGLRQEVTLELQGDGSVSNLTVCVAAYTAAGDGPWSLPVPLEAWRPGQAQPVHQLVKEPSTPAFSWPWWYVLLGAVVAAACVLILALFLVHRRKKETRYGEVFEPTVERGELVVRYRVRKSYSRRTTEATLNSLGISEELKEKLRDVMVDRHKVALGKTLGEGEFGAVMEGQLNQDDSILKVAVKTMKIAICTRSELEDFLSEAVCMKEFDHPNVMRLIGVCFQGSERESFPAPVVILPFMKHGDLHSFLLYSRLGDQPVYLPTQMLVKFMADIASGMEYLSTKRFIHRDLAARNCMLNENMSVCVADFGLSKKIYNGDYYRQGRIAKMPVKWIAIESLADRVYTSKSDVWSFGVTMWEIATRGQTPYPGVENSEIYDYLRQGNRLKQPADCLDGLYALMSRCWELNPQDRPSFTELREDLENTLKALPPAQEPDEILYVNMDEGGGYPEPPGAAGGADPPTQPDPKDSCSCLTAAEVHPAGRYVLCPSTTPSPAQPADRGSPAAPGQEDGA
Method: as §1, §2

Row | Structure (SMILES) | IC50 (MERTK) | Mer/Flt3 ratio (FLT3 IC50/Mer IC50) (MERTK) | IC50 (FLT3) | IC50 (AXL)
1 | CCCCNc1ncc2c(Oc3ccc(F)cc3)ncc([C@H]3CC[C@H](O)CC3)c2n1 [Compound 115] | ≤ 0.1 µM | + (a ratio of >2.0 and <10) | ≤ 0.1 µM | 1 to 10 µM
2 | COCC(C)Nc1ncc2c(=O)n(C3CCN(C)CC3)cc([C@H]3CC[C@H](O)CC3)c2n1 (some centres unmarked) [Compound 118] | 0.1 to 1 µM | ++ (a ratio of between 10 and 100) | 1 to 10 µM | 0.1 to 1 µM
3 | CCCCNc1ncc2c(=O)n(C3CCOCC3)cc([C@H]3CC[C@H](O)CC3)c2n1 [Compound 106, 2-(butylamino)-8-(4-hydroxycyclohexyl)-6-tetrahydropyran-4-yl-pyrido[4,3-d]pyrimidin-5-one] | ≤ 0.1 µM | + (a ratio of >2.0 and <10) | 0.1 to 1 µM | 0.1 to 1 µM
4 | COCC(COC)Nc1ncc2c(=O)n(C3CCNCC3)cc([C@H]3CC[C@H](O)CC3)c2n1 [Compound 110] | 1 to 10 µM | NS (a ratio of ≤2.0) | 1 to 10 µM | 1 to 10 µM
5 | CC[C@H](C)Nc1ncc2c(OCC34CCC(N)(CC3)CC4)ncc([C@H]3CC[C@H](O)CC3)c2n1 [Compound 252] | ≤ 0.1 µM | ++ (a ratio of between 10 and 100) | 1 to 10 µM | 0.1 to 1 µM
6 | CCCCNc1ncc2c(=O)n(Cc3ccc(F)cc3)cc([C@H]3CC[C@H](O)CC3)c2n1 [Compound 105] | ≤ 0.1 µM | + (a ratio of >2.0 and <10) | 0.1 to 1 µM | 0.1 to 1 µM
7 | CCCCNc1ncc2c(N(C)C)ncc([C@H]3CC[C@H](O)CC3)c2n1 [Compound 123] | 1 to 10 µM | NS (a ratio of ≤2.0) | ≤ 0.1 µM | 0.1 to 1 µM
8 | COCC(C)Nc1ncc2c(=O)n(C3CCNCC3)cc(C3CCC(O)CC3)c2n1 (centres unmarked) [Compound 111, 8-((1r,4r)-4-hydroxycyclohexyl)-2-((1-methoxypropan-2-yl)amino)-6-(piperidin-4-yl)pyrido[4,3-d]pyrimidin-5(6H)-one] | ≤ 0.1 µM | +++ (a ratio of >100) | 1 to 10 µM | 0.1 to 1 µM
9 | CCCCNc1ncc2c(NC3CCN(C)CC3)ncc([C@H]3CC[C@H](O)CC3)c2n1 [Compound 114] | ≤ 0.1 µM | +++ (a ratio of >100) | ≤ 0.1 µM | 0.1 to 1 µM
10 | CCCCC[C@H](C)Nc1ncc2c(OC3CCOCC3)ncc([C@H]3CC[C@H](O)CC3)c2n1 [Compound 113] | ≤ 0.1 µM | +++ (a ratio of >100) | 1 to 10 µM | 0.1 to 1 µM
11 | CCCCC[C@H](C)Nc1ncc2c(OC3CCNCC3)ncc([C@H]3CC[C@H](O)CC3)c2n1 [Compound 121] | ≤ 0.1 µM | +++ (a ratio of >100) | 1 to 10 µM | 0.1 to 1 µM
